Results published in patent US8652540B2, “Method of using rhein for treating fibrotic conditions and tumors” (priority 2012, dated 2014).
Marks after values point to notes of the source that are not given here.

Assays:
Col1-α1 = experiment: Real-time PCR, TGF-β-stimulated LTC-14 cells: Col1-α1; format: cell-based, rat; conditions: Rhein at 1, 10 and 100 μM; TGF-β 5 ng/mL
Description: (§1) The synthesized cDNA template was applied to amplifications with rat-specific primers for Tgf-β1, Acta2, Col1-α1 and Mmp2 in a real-time PCR sequencer. Expression of the gene of interest was expressed as a Ct value and normalized to the internal control Gapdh. […] After amplifications by real-time PCR, expression of the gene of interest was expressed as a Ct value and normalized to the internal control Gapdh.

α-SMA [1] = experiment: α-SMA expression in pancreatic tissues (immunofluorescence, Western blotting), cerulein-treated mice; format: in vivo, C57BL6 mice; conditions: Rhein oral 50 mg/kg/day for 6 weeks
Procedure: (§2) C57BL6 mice at age of 6 to 8 weeks with body weight in the range of 20 to 24 grams were used in these experiments. Mice were randomly assigned into 5 groups. Control group received saline injections only; Rhein group was fed with Rhein (≧98% pure) dissolved in 0.5% sodium carboxymethyl cellulose (Sigma, USA) in a single dose of 0.4 mL at 50 mg/kg/day for 6 weeks; Cerulein group received 6 cerulein injections at 50 μg/kg three times a week for 6 weeks; Cer+Rh 6w group received cerulein injections same as Cerulein group plus oral gavage of a single dose of Rhein at 50 mg/kg/day from the first day of experimental period till the end in a total of 6 weeks; Cer+Rh 3w group received cerulein injections same as Cerulein group and Cer+Rh 6w group, but was given with Rhein at 50 mg/kg/day starting the first day of week 4 till the end of experiment in a total of 3 weeks (n=6/group). Upon scarification, pancreata were immediately removed, weighed, trimmed from fat and fixed in 4% paraformaldehyde-phosphate buffered saline (PBS) overnight at 4° C. Samples were then processed, embedded in paraffin wax, sectioned and subjected to Hematoxylin-eosin (H & E) staining or Sirius Red staining Levels of TNF-α· in animal serum samples were determined using commercial ELISA kits. Proteins extracted from pancreatic tissues were subjected to Western blotting analyses.

[2] = Body weights and tolerability of mice given Rhein orally; format: in vivo, C57BL6 mice
Procedure: as §2

fibronectin 1 (FN1) = experiment: Western blotting of fibronectin in pancreatic tissues of CP mice; format: in vivo, C57BL6 mice; conditions: CP mice treated with Rhein vs non-Rhein-treated CP mice
Procedure: as §2

LTC-14 cells [3] = format: cell-based
Procedure: LTC-14 cells were cultured at 37° C. under a humidified condition of 95% air and 5% CO2 in IMDM supplemented with 10% fetal bovine serum (FBS). Cells used in all the experiment were among passages 9 to 22. LTC-14 cells were seeded at a density of 1×10^4/well in a 96-well plate, and incubated with different concentrations of Rhein (dissolved in DMSO) for 24 hours. MTT reagent was added to the cells at the end of the 24-hour treatment period. After a 3-hour reaction time, MTT products were dissolved in DMSO and OD at 570 nm was taken.

LTC-14 cells [4] = experiment: TGF-β induced transformation of PSCs to myofibroblast-like cells (light microscope); format: cell-based, rat; conditions: TGF-β 5 ng/mL, Rhein 10 μM
Procedure: To study the effect of Rhein on TGF-β induced transformation of PSCs to myofibroblast-like cells, LTC-14 cells were grown at a density of 1×10^5 in a 24-well plate, pre-incubated with TGF-β (5 ng/mL) for 24 hours and treated with or without Rhein (10 μM). At the time of harvest, cells were examined with morphological alterations under a light microscope.

collagen = experiment: Sirius Red staining of collagenous proteins in pancreas of CP mice; format: in vivo, C57BL6 mice
Procedure: as §2

α-SMA [5] = experiment: Immunofluorescence assay for α-SMA in TGF-β-stimulated LTC-14 cells; format: cell-based, rat; conditions: TGF-β 5 ng/mL, Rhein 10 μM
Procedure: To study the effect of Rhein on TGF-β induced expression of fibrotic filament formation, LTC-14 cells were grown on poly-L-lysine coated glass coverslips at a density of 1×10^5 in a 24-well plate pre-incubated with TGF-β (5 ng/mL) for 24 hours before the treatment with or without Rhein (10 μM). At the time of harvest, cells were subjected to immunofluorescence assay for α-SMA immunoreactivities.

[6] = Pancreatic weight and H&E histology, cerulein-induced chronic pancreatitis mice; format: in vivo, C57BL6 mice
Procedure: as §2

Acta2 = experiment: Real-time PCR, TGF-β-stimulated LTC-14 cells: Acta2; format: cell-based, rat; conditions: Rhein at 1, 10 and 100 μM; TGF-β 5 ng/mL
Description: as §1

Fn1 = experiment: Expression of Fn1 in TGF-β-stimulated LTC-14 cells; format: cell-based, rat; conditions: recombinant TGF-β
TNF-α = experiment: Serum TNF-α by ELISA, cerulein-induced chronic pancreatitis mice; format: in vivo, C57BL6 mice
Procedure: as §2

Tgf-β1 = experiment: Real-time PCR, TGF-β-stimulated LTC-14 cells: Tgf-β1; format: cell-based, rat; conditions: Rhein at 1, 10 and 100 μM; TGF-β 5 ng/mL
Description: as §1

[7] = Rhein group: 50 mg/kg/day oral for 6 weeks, no cerulein

Structure (SMILES): O=C(O)c1cc(O)c2c(c1)C(=O)c1cccc(O)c1C2=O [Rhein, 9,10-Dihydro-4,5-dihydroxy-9,10-dioxo-2-anthracenecarboxylic acid]
- TGF-β-elevated mRNA expression level of Col1-α1 (Col1-α1): significantly repressed
- expression of α-SMA in the pancreatic tissues (α-SMA [1]): significantly inhibits
- Body wt (g), Mean ([2]; Cer + Rh 3 wk: cerulein injections plus Rhein 50 mg/kg/day from week 4, 3 weeks): 24.07* g
- Body wt (g), Mean ([2]; Cer + Rh 6 wk: cerulein injections plus Rhein 50 mg/kg/day oral gavage for 6 weeks): 23.98* g
- Body wt (g), Mean [2, 7]: 26.10 g
- adverse effects ([2]; oral administration, animal study): no adverse effects
- protein expression levels of fibronectin (fibronectin 1 (FN1)): remarkably decreased
- PSC proliferation (LTC-14 cells [3]; in vitro, dose-dependent): suppress PSC proliferation
- LD50 (cytotoxicity) (LTC-14 cells [3]; rat, 24 h): approximately 130 μM
- transformation of LTC-14 cells into myofibroblast-like phenotype (LTC-14 cells [4]): represses the transformation
- amounts of collagenous protein (collagen): notably reduced
- α-SMA expression (immunofluorescent staining) (α-SMA [5]): remarkably suppresses
- histology of pancreatic tissues (acinar loss, lymphocyte infiltration, fibrosis) ([6]; CP mice, Rhein oral 50 mg/kg/day, H&E): less acinar loss (FIG. 1), lymphocyte infiltration and fibrosis
- pancreatic weight ([6]; cerulein-induced pancreatitis mice, vs Cerulein group): significant restoration of pancreatic weight
- TGF-β-elevated mRNA expression level of Acta2 (Acta2): significantly repressed
- TGF-β-stimulated expression level of Fn1 (Fn1): suppresses
- TNF-α (ng/mL), Mean (TNF-α; Cer + Rh 3 wk: cerulein plus Rhein 50 mg/kg/day from week 4, 3 weeks): 32.52# ng/mL
- TNF-α (ng/mL), Mean (TNF-α; Cer + Rh 6 wk: cerulein plus Rhein 50 mg/kg/day for 6 weeks): 31.18# ng/mL
- TNF-α (ng/mL), Mean (TNF-α; [7]): 14.43 ng/mL
- TGF-β-elevated mRNA expression level of Tgf-β1 (Tgf-β1): significantly repressed
